{"source": "patent US6486199B1", "about": "“Spiro and dispiro 1,2,4-trioxolane antimalarials” (Medicines for Malaria Venture MMV International Centre …, priority 2001, dated 2002)", "key": {"[1]": {"test_system": "chloroquine-resistant K1 strain of P. falciparum", "test": "in vitro screen against chloroquine-resistant K1 strain of P. falciparum", "format": "cell-based", "conditions": "in vitro, K1 strain"}, "[2]": {"test_system": "ANKA strain of P. Berghei", "test": "single dose STI in vivo screen in infected Moro SPF mice", "conditions": "for antimalarial activity, overall assessment: overall judgement of in vitro and in vivo data of Table 2; for Activity (%) po / Activity (%) sc: percent reduction in parasitemia day 3 post-infection"}, "P. berghei [3]": {"test_system": "P. berghei", "test": "1-day Peters test against P. berghei in vivo"}, "P. berghei [4]": {"test_system": "P. berghei", "test": "4-day Peters test against P. berghei in vivo", "conditions": "4 day"}, "NB2a cell line": {"test_system": "NB2a cell line", "test": "neurotoxicity against the NB2a cell line", "format": "cell-based"}, "parasitemia": {"test_system": "parasitemia", "test": "onset of drug action and recrudescence after single oral dose", "format": "in vivo", "conditions": "for duration of action compared with artemether: single 100 mg/kg po; for Recrudescence (>5% parasitemia) occurs on day: single 100 mg/kg po on day +3 post-infection", "experimental": "The reduction of parasitemia was monitored 12 h after treatment, and the time of recrudescence was assessed by daily blood smears for 14 days, followed by intermittent assessment for up to 30 days."}, "Schistosoma mansoni": {"test_system": "Schistosoma mansoni", "test": "treatment of mice infected with Schistosoma mansoni cercaria, six weekly oral doses", "format": "in vivo", "conditions": "for activity in the same assay: artemether at doses four times higher than OZ05, arteflene 6×600 mg/kg p.o., fenozan 6×100 mg/kg p.o.", "description": "Mice (MORO SPF female 18-20g) were infected with 90 (±10) cecaria of Schistosoma mansoni subcutaneously."}, "adult S. mansoni": {"test_system": "adult S. mansoni", "test": "activity against adult S. mansoni, treated once at day 49 of infection", "format": "in vivo", "conditions": "OZ05 200 mg/kg p.o., OZ11 100 mg/kg p.o."}, "[5]": {"test_system": "21-day-old schistosomules of Schistosoma mansoni", "test": "effect on 21-day-old schistosomules in mice", "format": "in vivo", "conditions": "single 200 mg/kg per os; for FWR (%): female worm reduction rate; for Mean female worm burden: mean ± standard deviation; for TWR (%): total worm reduction rate", "experimental": "[…] Each group was treated per os with OZ compounds at a single dose of 200 mg/kg. Untreated mice served as the control. All groups were killed 4 weeks after treatment and the liver and intestine were removed and separated. The liver and intestine were compressed and alive male and female worms could be seen and counted. The effect of the compounds was evaluated by mean total and female worm burden."}, "[6]": {"test_system": "adult schistosomes (49-day-old) of Schistosoma mansoni", "test": "effect on adult schistosomes (49-day-old) in mice", "format": "in vivo", "conditions": "single 400 mg/kg per os; for TWR (%): total worm reduction rate; for Mean total worm burden: x ± SD", "experimental": "Mice were infected with 100 Schistosoma mansoni cercariae […]. Each group was treated per os with OZ compounds at a single dose of 400 mg/kg. Untreated mice served as the control. All groups were killed 4 weeks after treatment and the liver and intestine were removed and separated. The liver and intestine were compressed and alive male and female worms could be seen and counted."}, "[7]": {"test": "differential scanning calorimetry (DSC), thermal stability", "format": "physicochemical", "conditions": "thermal decomposition"}, "[8]": {"test_system": "chloroquine-sensitive NF54 strain of P. falciparum", "test": "in vitro screen against chloroquine-sensitive NF54 strain of P. falciparum", "format": "cell-based", "conditions": "in vitro, NF54 strain"}}, "note": "“And” between values parts separate entries of the source, which are not always exact repeats. Equal entries are not always repeated. Where two headings read alike, the source gives them in different places. Marks after values point to notes of the source that are not given here."}
{"compound": "O=C1CCC2(CC1)OOC1(O2)C2CC3CC(C2)CC1C3", "note": "(centres unmarked) [OZ05, Adamantane-2-spiro-3′-8′-oxo-1′,2′,4′-trioxaspiro[4.5]decane]", "values": [{"measurement": "IC50 (ng/ml) K1", "setting": "[1]", "result": 0.19, "unit": "ng/mL"}, {"measurement": "antimalarial activity, overall assessment", "setting": "[2]", "result": "more active"}, {"measurement": "Activity (%) po", "setting": "[2]; single 100 mg/kg po", "result": "100/100%"}, {"measurement": "Activity (%) sc", "setting": "[2]; single 100 mg/kg sc", "result": "100/100%"}, {"measurement": "Survival (days) po", "setting": "[2]; single 100 mg/kg po, survival to day 30 = cure", "result": 10.7, "unit": "days"}, {"measurement": "Survival (days) sc", "setting": "[2]; single 100 mg/kg sc, survival to day 30 = cure", "result": 30, "unit": "days"}, {"measurement": "P. berghei (1 day) ED50 po", "setting": "P. berghei [3]; po", "result": 3.5, "unit": "mg/kg"}, {"measurement": "P. berghei (1 day) ED90 po", "setting": "P. berghei [3]; po", "result": 7.0, "unit": "mg/kg"}, {"measurement": "P. berghei (1 day) ED50 sc", "setting": "P. berghei [3]", "result": 0.16, "unit": "mg/kg"}, {"measurement": "P. berghei (1 day) ED90 sc", "setting": "P. berghei [3]", "result": 2.3, "unit": "mg/kg"}, {"measurement": "P. berghei (4 day) ED50 po", "setting": "P. berghei [4]", "result": 1.5, "unit": "mg/kg"}, {"measurement": "P. berghei (4 day) ED90 po", "setting": "P. berghei [4]", "result": 6.1, "unit": "mg/kg"}, {"measurement": "P. berghei (4 day) ED50 sc", "setting": "P. berghei [4]", "result": 0.6, "unit": "mg/kg"}, {"measurement": "P. berghei (4 day) ED90 sc", "setting": "P. berghei [4]", "result": 1.0, "unit": "mg/kg"}, {"measurement": "IC50", "setting": "NB2a cell line; NB2a cell line", "result": 31, "unit": "µM"}, {"measurement": "duration of action compared with artemether", "setting": "parasitemia", "result": "comparable"}, {"measurement": "Recrudescence (>5% parasitemia) occurs on day", "setting": "parasitemia", "result": 5, "unit": "days"}, {"measurement": "reduction in parasitaemia", "setting": "Schistosoma mansoni; 100 mg/kg p.o. on days 7, 14, 21, 28, 35, 42, individual mice", "result": "100% and 53%"}, {"measurement": "activity against adult S. mansoni", "setting": "adult S. mansoni", "result": "showed activity"}, {"measurement": "FWR (%)", "setting": "[5]", "result": 88, "unit": "%"}, {"measurement": "Mean female worm burden", "setting": "[5]", "result": "1.5 ± 1.0^b"}, {"measurement": "TWR (%)", "setting": "[5]", "result": 90, "unit": "%"}, {"measurement": "Percentage of dead worm", "setting": "[6]", "result": "13.4 (31/232)"}, {"measurement": "Total dead worm", "setting": "[6]", "result": 31}, {"measurement": "TWR (%)", "setting": "[6]", "result": 0, "unit": "%"}, {"measurement": "Mean total worm burden", "setting": "[6]", "result": "40.2 ± 13.6"}, {"measurement": "Tm dec. (° C.)", "setting": "[7]", "result": 156.3, "unit": "°C"}]}
{"compound": "CCOC(=O)CCC1CCCCC12OOC1(CCCCC1)O2", "note": "(centres unmarked) [OZ07, 1-[2-(Ethoxycarbonyl)ethyl]-7,14,15-trioxadispiro[5.1.5.2]pentadecane]", "values": [{"measurement": "IC50", "setting": "[1]; Plasmodium falciparum, read-out: IC50 (ng/ml) K1", "result": 66, "unit": "ng/mL"}, {"measurement": "IC50", "setting": "[8]; Plasmodium falciparum, read-out: IC50 (ng/ml) NF54", "result": 49, "unit": "ng/mL"}, {"measurement": "antimalarial activity, overall assessment", "setting": "[2]", "result": "less active"}, {"measurement": "Activity (%) po", "setting": "[2]; single 100 mg/kg po", "result": "0/0%"}, {"measurement": "Activity (%) sc", "setting": "[2]; single 100 mg/kg sc", "result": "0/0%"}, {"measurement": "IC50", "setting": "NB2a cell line", "result": 27, "unit": "µM"}]}
{"compound": "CC1(C)COC2(CCC3(CC2)OOC2(O3)C3CC4CC(C3)CC2C4)OC1", "note": "(centres unmarked) [OZ11, Adamantane-2-spiro-3′-11′,11′-dimethyl-1′,2′,4′,9′,13′-pentaoxadispiro[4.2.5.2]pentadecane]", "values": [{"measurement": "P. berghei (1 day) ED50 po", "setting": "P. berghei [3]; po", "result": 1.5, "unit": "mg/kg"}, {"measurement": "P. berghei (1 day) ED90 po", "setting": "P. berghei [3]; po", "result": 2.8, "unit": "mg/kg"}, {"measurement": "P. berghei (1 day) ED90 sc", "setting": "P. berghei [3]", "result": "NA/0.87 mg/kg"}, {"measurement": "P. berghei (4 day) ED50 po", "setting": "P. berghei [4]", "result": 1.8, "unit": "mg/kg"}, {"measurement": "P. berghei (4 day) ED90 po", "setting": "P. berghei [4]", "result": 3.1, "unit": "mg/kg"}, {"measurement": "P. berghei (4 day) ED50 sc", "setting": "P. berghei [4]", "result": 0.5, "unit": "mg/kg"}, {"measurement": "P. berghei (4 day) ED90 sc", "setting": "P. berghei [4]", "result": 0.9, "unit": "mg/kg"}, {"measurement": "duration of action compared with artemether", "setting": "parasitemia", "result": "longer"}, {"measurement": "Recrudescence (>5% parasitemia) occurs on day", "setting": "parasitemia", "result": 10, "unit": "days"}, {"measurement": "activity against adult S. mansoni", "setting": "adult S. mansoni", "result": "showed activity"}, {"measurement": "FWR (%)", "setting": "[5]", "result": 84, "unit": "%"}, {"measurement": "Mean female worm burden", "setting": "[5]", "result": "2.0 ± 1.9^b"}, {"measurement": "TWR (%)", "setting": "[5]", "result": 85, "unit": "%"}, {"measurement": "Percentage of dead worm", "setting": "[6]", "result": "3.9 (6/156)"}, {"measurement": "Total dead worm", "setting": "[6]", "result": 6}, {"measurement": "TWR (%)", "setting": "[6]", "result": 16.2, "unit": "%"}, {"measurement": "Mean total worm burden", "setting": "[6]", "result": "30.0 ± 1.9^a"}, {"measurement": "Tm dec. (° C.)", "setting": "[7]", "result": 162.4, "unit": "°C"}]}
{"compound": "C[C@@H]1C(=O)C[C@H]2C[C@@H]1OO[C@@]2(C)/C=C\\c1ccc(C(F)(F)F)cc1C(F)(F)F", "note": "[arteflene, reference compound]", "values": [{"measurement": "activity in the same assay", "setting": "Schistosoma mansoni", "result": "inactive"}]}
{"compound": "fenozan [reference compound]", "values": [{"measurement": "IC50 (ng/ml) K1", "setting": "[1]", "result": 3.2, "unit": "ng/mL"}, {"measurement": "IC50 (ng/ml) NF54", "setting": "[8]", "result": 3.0, "unit": "ng/mL"}, {"measurement": "Activity (%) po", "setting": "[2]; single 10 mg/kg po", "result": 99.95, "unit": "%"}, {"measurement": "Activity (%) sc", "setting": "[2]; single 10 mg/kg sc", "result": 100, "unit": "%"}, {"measurement": "Survival (days) po", "setting": "[2]; single 10 mg/kg po", "result": 8.6, "unit": "days"}, {"measurement": "Survival (days) sc", "setting": "[2]; single 10 mg/kg sc", "result": 13.4, "unit": "days"}, {"measurement": "P. berghei (1 day) ED50 po", "setting": "P. berghei [3]; po", "result": 1.7, "unit": "mg/kg"}, {"measurement": "P. berghei (1 day) ED90 po", "setting": "P. berghei [3]; po", "result": 4.3, "unit": "mg/kg"}, {"measurement": "P. berghei (1 day) ED50 sc", "setting": "P. berghei [3]", "result": 1.7, "unit": "mg/kg"}, {"measurement": "P. berghei (1 day) ED90 sc", "setting": "P. berghei [3]", "result": 3.2, "unit": "mg/kg"}, {"measurement": "oral activity based on po ED50/ED90 values", "setting": "P. berghei [3]; po, ranking among trioxolanes and controls", "result": "only slightly less orally active than OZ11"}, {"measurement": "P. berghei (4 day) ED50 po", "setting": "P. berghei [4]", "result": 1.9, "unit": "mg/kg"}, {"measurement": "P. berghei (4 day) ED90 po", "setting": "P. berghei [4]", "result": 2.7, "unit": "mg/kg"}, {"measurement": "P. berghei (4 day) ED50 sc", "setting": "P. berghei [4]", "result": 1.1, "unit": "mg/kg"}, {"measurement": "P. berghei (4 day) ED90 sc", "setting": "P. berghei [4]", "result": 2.3, "unit": "mg/kg"}, {"measurement": "activity in the same assay", "setting": "Schistosoma mansoni", "result": "inactive"}]}
